Experimental data taken from a compilation of properties of binary mixtures (doi:10.1021/je0498457).

Test: excess molar enthalpy (molar enthalpy of mixing); xn = mol fraction of the nth substance listed
Settings: 100 kPa

C1CCOCC1 + CCCCO
excess molar enthalpy [kcal/mol]
Settings | 283.15 K | 298.15 K | 313.15 K
x1 = 0.04 | 0.0282 | 0.0299 | 0.0284
x1 = 0.09 | 0.0574 | 0.0614 | 0.0617
x1 = 0.188 | 0.108 | – | 0.124
x1 = 0.288 | 0.15 | 0.165 | 0.176
x1 = 0.39 | 0.182 | 0.201 | 0.215
x1 = 0.49 | 0.199 | – | 0.234
x1 = 0.593 | 0.204 | 0.223 | –
x1 = 0.694 | 0.192 | – | 0.218
x1 = 0.796 | 0.159 | 0.167 | 0.171
x1 = 0.901 | 0.0963 | 0.0985 | 0.0975
x1 = 0.952 | 0.0528 | 0.0531 | 0.0516
